Values after ≈ are worked out from the molar mass of the structure shown. Like-named read-outs stand apart in the source and are kept apart here. Where a SMILES comes first, the peptide text is derived from it. The star is where a group is joined. X4 = CCCN(CCc1c2c(nc3ccccc13)-c1cc3c(c(=O)n1C2)COC(=O)[C@]3(O)CC)*; Propanoyl(3-maleimido) = O=C1C=CC(=O)N1CCC(=O)*; PEG6 = NCCOCCOCCOCCOCCOCCOCCC(=O)O
Columns and labels:
[1] = test system: A2780 ovarian cancer tumor model; assay: Efficacy in animal model of A2780 ovarian cancer, 30 mg/kg once a week for two weeks (Example 41); format: in vivo, BALB/c mice
Experimental: Test objective: To further compare the antitumor efficacy of different polypeptide Linkers in an animal tumor model of A2780 ovarian cancer.
(§1) Test drug: Polypeptide conjugate and normal saline control group.
8×10^6 corresponding cells were injected into right axillas of nude mice subcutaneously. […] The negative control group was administered normal saline. Administration was performed once a week for two weeks.

[2] = Homogenate activation efficiency, heart tissue (Examples 28, 37); format: in vitro ADME; details: pH 5.0, 37° C., 2 h; Table 5
[3] = Tumor homogenate activation efficiency, small cell lung cancer tissue (Example 28); format: in vitro ADME; details: pH 5.0, 37° C., 2 h; Table 5
Experimental: (§2) Buffer preparation: 50 mM PH buffer (MES), 250 mM NaCl, pH adjusted to 5.0 with 0.5 M of sodium hydroxide.
(§3) The polypeptide conjugate was prepared into a 1 mg/ml solution with pH 5.0 buffer, 100 μg of tumor tissue homogenate was added, (the tumor tissue homogenate was the homogenate of tumor tissues prepared with a Jingxin F6/10 handheld homogenizer), and the solution was placed at 37° C. for 2 h. The tumor tissue homogenate could effectively activate the polypeptide conjugate and release Belotecan, and the activation efficiencies of the drugs in tumor tissues were compared by high-performance liquid chromatography (HPLC) allowing determination of a decrease in the compounds and an increase in Belotecan:
(§4) Release percentage=peak area of Belotecan/total peak area of Belotecan and all other Belotecan-containing compounds

[4] = MTD determination in mice (Examples 27, 36, 44); format: in vivo; details: female, mouse, in vivo; mice, monitored for 14 d; Table 4
Text: Test animals: 6-8 weeks old mice, all female; mice were grouped randomly, with six mice in each group, administered with drugs at different concentration gradients separately and monitored for 14 d. A mouse was euthanized at a loss of 20% of its initial weight and deemed to have died of poisoning.

[5] = test system: SKBR3 (breast cancer tissue); assay: cells; format: cell-based; details: CCK8, 48 h; Table 1
Procedure, shortened: (§5)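 Proliferation was assessed by seeding 5,000 cells per well onto medium already containing the test drug at various concentrations. Plates stood 48 h at 37° C, then took CCK8 staining (~2 h) before A450 measurement. Median inhibitory concentrations come from survival relative to 0.1% DMSO controls.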

SJSA-1 (sarcoma tissue) = assay: cells; format: cell-based; details: CCK8, 48 h; Table 1
Procedure, shortened: as §5

[6] = test system: A549 (non-small cell lung cancer); assay: cells; format: cell-based; details: CCK8, 48 h; Table 1
Procedure, shortened: as §5

A2780 (ovarian cancer) = assay: cells; format: cell-based; details: CCK8, 48 h; Table 1
Procedure, shortened: as §5

[7] = Tumor homogenate activation efficiency, non-small cell lung cancer tissue (Examples 28, 37); format: in vitro ADME; details: pH 5.0, 37° C., 2 h; Table 5
Experimental: as §2, §3, §4
as §3, with “HPLC” for “high-performance liquid chromatography (HPLC)”, “Belotecan: […]” for “Belotecan:”

[8] = test system: colo320 colorectal cancer tumor model; details: Table 3
Procedure, shortened: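 Dosing was once a week for four weeks, with saline as control, in randomized groups of three mice. Groups were formed after subcutaneous colo320 xenografts (7.5×10^6 cells, right chest) grew to ≥120 mm^3 in female 6–8-week-old BALB/c nude mice.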

[9] = Tumor homogenate activation efficiency, breast cancer tissue (Examples 28, 37); format: in vitro ADME; details: pH 5.0, 37° C., 2 h; Table 5
Experimental: as §2, §3, §4
as §3, with “HPLC” for “high-performance liquid chromatography (HPLC)”, “Belotecan: […]” for “Belotecan:”

[10] = Tumor homogenate activation efficiency, ovarian cancer tissue (Examples 28, 37); format: in vitro ADME; details: pH 5.0, 37° C., 2 h; Table 5
Experimental: as §2, §3, §4
as §3, with “HPLC” for “high-performance liquid chromatography (HPLC)”, “Belotecan: […]” for “Belotecan:”

[11] = test system: sarcoma SJSA-1 tumor model; details: Table 2
Procedure, shortened: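 Female BALB/c nude mice (6-8 weeks) bearing subcutaneous right-chest SJSA-1 xenografts from 2×10^7 cells were randomized, three per group, once tumors reached at least 100 mm^3. Treatment given once a week for three weeks starting day 1; saline controls.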

[12] = Tumor homogenate activation efficiency, sarcoma tissue (Examples 28, 37); format: in vitro ADME; details: pH 5.0, 37° C., 2 h; Table 5
Experimental: as §2, §3, §4
as §3, with “HPLC” for “high-performance liquid chromatography (HPLC)”, “Belotecan: […]” for “Belotecan:”

[13] = test system: sarcoma SJSA-1 tumor model; assay: Efficacy in animal model of sarcoma SJSA-1, 30 mg/kg once a week for two weeks (Example 40); format: in vivo, BALB/c mice; details: 30 mg/kg once a week for two weeks
Experimental: Test objective: To further compare the antitumor efficacy of different polypeptide Linkers in an animal tumor model of sarcoma SJSA-1.
as §1
The control group was administered normal saline. Administration was performed once a week for two weeks.

[14] = 15 mg/kg once a week for four weeks
[15] = 45 mg/kg once a week for four weeks
[16] = 15 mg/kg once a week for three weeks
[17] = 45 mg/kg once a week for three weeks

SMILES: CCCN(CCc1c2c(nc3ccccc13)-c1cc3c(c(=O)n1C2)COC(=O)[C@]3(O)CC)C(=O)CNC(=O)[C@H](CC(N)=O)NC(=O)[C@H](C)NC(=O)[C@H](C)NC(=O)CCOCCOCCOCCOCCOCCOCCNC(=O)CCN1C(=O)C=CC1=O [MI-6PEG-AANG-D3] ({Propanoyl(3-maleimido)-PEG6}-AANG-X4)
- A2780 (ovarian cancer) mean tumor volume (mm^3) Day 1 ([1]; Day 1): 138.55 mm^3
- A2780 (ovarian cancer) mean tumor volume (mm^3) Day 4 ([1]; Day 4): 302.74 mm^3
- A2780 (ovarian cancer) mean tumor volume (mm^3) Day 7 ([1]; Day 7): 742.51 mm^3
- A2780 (ovarian cancer) mean tumor volume (mm^3) Day 10 ([1]; Day 10): 898.06 mm^3
- A2780 (ovarian cancer) mean tumor volume (mm^3) Day 14 ([1]; Day 14): 1141.65 mm^3
- Growth rate (%) of A2780 (ovarian cancer) on Day 14 ([1]; Day 14): 824.00%
- Mouse weight (%) on Day 14 ([1]; Day 14): +11.4%
- Percentage of release efficiency (%) Heart tissue [2]: 3.6%
- Percentage of release efficiency (%) Small cell lung cancer tissue (NCI-H841) [3]: 71.2%
- MTD at 14 d [4]: 350 mg/kg
- IC50 SKBR3 (breast cancer tissue) [5]: 2.42 µg/mL (≈ 1.96 µM)
- IC50 SJSA-1 (sarcoma tissue) (SJSA-1 (sarcoma tissue)): 1.63 µg/mL (≈ 1.32 µM)
- IC50 A549 (non-small cell lung cancer) [6]: 3.41 µg/mL (≈ 2.76 µM)
- IC50 A2780 (ovarian cancer) (A2780 (ovarian cancer)): 1.80 µg/mL (≈ 1.46 µM)
- Percentage of release efficiency (%) Non-small cell lung cancer tissue (A549) [7]: 82.6%
- Mouse weight (%) [8, 14]: +31%
- colo320 (colorectal cancer cell) growth rate (%) [8, 14]: 985.14%
- colo320 (colorectal cancer cell) mean tumor volume (mm^3) [8, 14]: 1091.1 mm^3
- Mouse weight (%) [8, 15]: +20%
- colo320 (colorectal cancer cell) growth rate (%) [8, 15]: 481.06%
- colo320 (colorectal cancer cell) mean tumor volume (mm^3) [8, 15]: 532.8 mm^3
- Percentage of release efficiency (%) Breast cancer tissue (SKBR3) [9]: 84.6%
- Percentage of release efficiency (%) Ovarian cancer tissue (A2780) [10]: 76.2%
- Mouse weight (%) [11, 16]: +29%
- SJSA-1 (sarcoma tissue) mean tumor volume (mm^3) [11, 16]: 1325.4 mm^3
- SJSA-1 (sarcoma) Growth rate (%) [11, 16]: 1095.4%
- Mouse weight (%) [11, 17]: +26%
- SJSA-1 (sarcoma tissue) mean tumor volume (mm^3) [11, 17]: 1098.2 mm^3
- SJSA-1 (sarcoma) Growth rate (%) [11, 17]: 930.68%
- Percentage of release efficiency (%) Sarcoma tissue (SJSA1) [12]: 88.9%
- SJSA-1 (sarcoma tissue) mean tumor volume (mm^3) Day 1 ([13]; Day 1): 132.12 mm^3
- SJSA-1 (sarcoma tissue) mean tumor volume (mm^3) Day 4 ([13]; Day 4): 360.28 mm^3
- SJSA-1 (sarcoma tissue) mean tumor volume (mm^3) Day 7 ([13]; Day 7): 610.04 mm^3
- SJSA-1 (sarcoma tissue) mean tumor volume (mm^3) Day 10 ([13]; Day 10): 833.76 mm^3
- Mouse weight (%) on Day 14 ([13]; Day 14): +3.6%
- SJSA-1 (sarcoma tissue) growth rate (%) on Day 14 ([13]; Day 14): 1002.12%
- SJSA-1 (sarcoma tissue) mean tumor volume (mm^3) Day 14 ([13]; Day 14): 1324.00 mm^3
